Source: ChEMBL document CHEMBL5154804, “Species-Selective Targeting of Fungal Hsp90: Design, Synthesis, and Evaluation of Novel 4,5-Diarylisoxazole Derivatives for the Combination Treatment of Azole-Resistant Candidiasis” (J Med Chem, 2022)

Columns and labels:
Assay type in all cases: functional
[1] = tested on: Candida albicans; test: Synergistic antifungal activity against fluconazole-resistant Candida albicans 901 assessed as inhibition of fungal growth in presence of fluconazole by checker board microdilution assay
[2] = tested on: Candida albicans; test: Synergistic antifungal activity against fluconazole-resistant Candida albicans 311 assessed as inhibition of fungal growth in presence of fluconazole by checker board microdilution assay; also: test concentration or dose not given here
[3] = tested on: Candida albicans; test: Synergistic antifungal activity against fluconazole-resistant Candida albicans 904 assessed as inhibition of fungal growth in presence of fluconazole by checker board microdilution assay; also: test concentration or dose not given here
[4] = tested on: Candida albicans; test: Synergistic antifungal activity against fluconazole-resistant Candida albicans 632 assessed as inhibition of fungal growth in presence of fluconazole by checker board microdilution assay
[5] = tested on: Candida albicans; test: Synergistic antifungal activity against fluconazole-resistant Candida albicans 103 assessed as inhibition of fungal growth in presence of fluconazole by checker board microdilution assay
[6] = tested on: Candida albicans; test: Synergistic antifungal activity against fluconazole-resistant Candida albicans 100 assessed as inhibition of fungal growth in presence of fluconazole by checker board microdilution assay

Row | Compound | MIC80 [1] | MIC80 [2] | MIC80 [3] | MIC80 [4] | MIC80 [5] | MIC80 [6]
1 | CCNC(=O)c1noc(-c2cc(-c3ccc(C)cc3)c(O)cc2O)c1-c1ccc(CN2CCN(C)CC2)cc1 | 64 µg/mL | > 64 µg/mL | > 64 µg/mL | > 64 µg/mL | > 64 µg/mL | > 64 µg/mL
2 | CCN(CC)C(=O)c1noc(-c2cc(-c3ccc(C)cc3)c(O)cc2O)c1-c1ccc(CN2CCCCC2)cc1 | 4 µg/mL | 4 µg/mL | 8 µg/mL | 4 µg/mL | 2 µg/mL | 4 µg/mL
3 | CCNC(=O)c1noc(-c2cc(-c3ccc(C)cc3)c(O)cc2O)c1-c1ccc(CN2CCCC2)cc1 | 1 µg/mL | 4 µg/mL | 2 µg/mL | 4 µg/mL | 4 µg/mL | 2 µg/mL
4 | CCNC(=O)c1noc(-c2cc(-c3ccc(OC)cc3)c(O)cc2O)c1-c1ccc(CN2CCOCC2)cc1 | 8 µg/mL | 16 µg/mL | 4 µg/mL | 16 µg/mL | 8 µg/mL | 8 µg/mL
5 | Cc1ccc(-c2cc(-c3onc(C(=O)N(C)C)c3-c3ccc(CN4CCOCC4)cc3)c(O)cc2O)cc1 | 4 µg/mL | 32 µg/mL | 8 µg/mL | 8 µg/mL | 16 µg/mL | 32 µg/mL
6 | CCNC(=O)c1noc(-c2cc(-c3ccc(C)cc3)c(O)cc2O)c1-c1ccc(CNC2CCN(C)CC2)cc1 | 16 µg/mL | 64 µg/mL | 64 µg/mL | 8 µg/mL | 16 µg/mL | 64 µg/mL
7 | Cc1ccc(-c2cc(-c3onc(C(=O)N(C)C)c3-c3ccc(CN4CCCCC4)cc3)c(O)cc2O)cc1 | 16 µg/mL | 16 µg/mL | 8 µg/mL | 8 µg/mL | 16 µg/mL | 8 µg/mL
8 | Cc1ccc(-c2cc(-c3onc(C(=O)NC4CCC4)c3-c3ccc(CN4CCOCC4)cc3)c(O)cc2O)cc1 | 8 µg/mL | > 64 µg/mL | 4 µg/mL | 64 µg/mL | 32 µg/mL | 16 µg/mL
9 | CCNC(=O)c1noc(-c2cc(-c3ccc(C)cc3)c(O)cc2O)c1-c1ccc(CN2CCC(N3CCOCC3)CC2)cc1 | > 64 µg/mL | > 64 µg/mL | > 64 µg/mL | > 64 µg/mL | > 64 µg/mL | > 64 µg/mL
10 | Cc1ccc(-c2cc(-c3onc(C(=O)N4CCCC4)c3-c3ccc(CN4CCOCC4)cc3)c(O)cc2O)cc1 | > 64 µg/mL | > 64 µg/mL | > 64 µg/mL | > 64 µg/mL | > 64 µg/mL | > 64 µg/mL
11 | CCNC(=O)c1noc(-c2cc(-c3ccc(OC(F)(F)F)cc3)c(O)cc2O)c1-c1ccc(CN2CCOCC2)cc1 | > 64 µg/mL | > 64 µg/mL | > 64 µg/mL | > 64 µg/mL | > 64 µg/mL | > 64 µg/mL
12 | CCNC(=O)c1noc(-c2cc(-c3ccc(C)cc3)c(O)cc2O)c1-c1ccc(CN2CCS(=O)(=O)CC2)cc1 | 64 µg/mL | 16 µg/mL | 32 µg/mL | > 64 µg/mL | > 64 µg/mL | > 64 µg/mL
13 | CCNC(=O)c1noc(-c2cc(-c3cccc(C)c3)c(O)cc2O)c1-c1ccc(CN2CCOCC2)cc1 | 0.5 µg/mL | 0.5 µg/mL | 0.25 µg/mL | 0.25 µg/mL | 1 µg/mL | 1 µg/mL
14 | Cc1ccc(-c2cc(-c3onc(C(=O)NC4COC4)c3-c3ccc(CN4CCOCC4)cc3)c(O)cc2O)cc1 | > 64 µg/mL | > 64 µg/mL | > 64 µg/mL | > 64 µg/mL | > 64 µg/mL | > 64 µg/mL
15 | CCNC(=O)c1noc(-c2cc(-c3ccc(C)cc3)c(O)cc2O)c1-c1ccc(CN2CC(C)CC(C)C2)cc1 (centres undefined) | 0.5 µg/mL | 2 µg/mL | 1 µg/mL | 2 µg/mL | 16 µg/mL | 4 µg/mL
16 | CCCNC(=O)c1noc(-c2cc(-c3ccc(C)cc3)c(O)cc2O)c1-c1ccc(CN2CCOCC2)cc1 | 4 µg/mL | 64 µg/mL | 4 µg/mL | 32 µg/mL | 32 µg/mL | 16 µg/mL
17 | CCNC(=O)c1noc(-c2cc(-c3ccccc3F)c(O)cc2O)c1-c1ccc(CN2CCOCC2)cc1 | > 64 µg/mL | > 64 µg/mL | > 64 µg/mL | > 64 µg/mL | > 64 µg/mL | > 64 µg/mL
18 | CCNC(=O)c1noc(-c2cc(-c3ccc(C)cc3)c(O)cc2O)c1-c1ccc(CN2CCSCC2)cc1 | 0.5 µg/mL | 2 µg/mL | 8 µg/mL | 0.5 µg/mL | 1 µg/mL | 2 µg/mL
19 | Cc1ccc(-c2cc(-c3onc(C(=O)NC4CC4)c3-c3ccc(CN4CCOCC4)cc3)c(O)cc2O)cc1 | 8 µg/mL | > 64 µg/mL | 4 µg/mL | 32 µg/mL | 16 µg/mL | 4 µg/mL
20 | CCNC(=O)c1noc(-c2cc(-c3ccc(F)cc3)c(O)cc2O)c1-c1ccc(CN2CCOCC2)cc1 | 2 µg/mL | 16 µg/mL | 1 µg/mL | 4 µg/mL | 16 µg/mL | 16 µg/mL
21 | Cc1ccc(-c2cc(-c3onc(C(=O)N4CCCCC4)c3-c3ccc(CN4CCOCC4)cc3)c(O)cc2O)cc1 | > 64 µg/mL | > 64 µg/mL | > 64 µg/mL | > 64 µg/mL | > 64 µg/mL | > 64 µg/mL
22 | CCNC(=O)c1noc(-c2cc(-c3cccc(C(F)(F)F)c3)c(O)cc2O)c1-c1ccc(CN2CCOCC2)cc1 | > 64 µg/mL | > 64 µg/mL | > 64 µg/mL | > 64 µg/mL | > 64 µg/mL | > 64 µg/mL
23 | CCNC(=O)c1noc(-c2cc(-c3cccc(C(C)(C)C)c3)c(O)cc2O)c1-c1ccc(CN2CCOCC2)cc1 | > 64 µg/mL | > 64 µg/mL | > 64 µg/mL | > 64 µg/mL | > 64 µg/mL | > 64 µg/mL
24 | CCNC(=O)c1noc(-c2cc(-c3ccc(C(F)(F)F)cc3)c(O)cc2O)c1-c1ccc(CN2CCOCC2)cc1 | > 64 µg/mL | > 64 µg/mL | > 64 µg/mL | > 64 µg/mL | > 64 µg/mL | > 64 µg/mL
25 | CCNC(=O)c1noc(-c2cc(-c3ccc(C(C)(C)C)cc3)c(O)cc2O)c1-c1ccc(CN2CCOCC2)cc1 | > 64 µg/mL | > 64 µg/mL | > 64 µg/mL | > 64 µg/mL | > 64 µg/mL | > 64 µg/mL
26 | CCNC(=O)c1noc(-c2cc(-c3ccc(Cl)cc3)c(O)cc2O)c1-c1ccc(CN2CCOCC2)cc1 | 0.5 µg/mL | 16 µg/mL | 0.5 µg/mL | 8 µg/mL | 8 µg/mL | 4 µg/mL
27 | CCNC(=O)c1noc(-c2cc(-c3ccc(C(C)C)cc3)c(O)cc2O)c1-c1ccc(CN2CCOCC2)cc1 | > 64 µg/mL | > 64 µg/mL | > 64 µg/mL | > 64 µg/mL | > 64 µg/mL | > 64 µg/mL
28 | CCNC(=O)c1noc(-c2cc(-c3ccccc3C(C)C)c(O)cc2O)c1-c1ccc(CN2CCOCC2)cc1 | > 64 µg/mL | > 64 µg/mL | > 64 µg/mL | > 64 µg/mL | > 64 µg/mL | > 64 µg/mL
29 | CCNC(=O)c1noc(-c2cc(-c3ccc(C)cc3)c(O)cc2O)c1-c1ccc(CNC2CCOCC2)cc1 | > 64 µg/mL | > 64 µg/mL | > 64 µg/mL | > 64 µg/mL | > 64 µg/mL | > 64 µg/mL
